Measurements published in patent publication US20240217946A1, “ANTIDEPRESSANT AND ANXIOLYTIC SUBSTITUTED CINNAMAMIDE COMPOUND” (TASLY PHARMACEUTICAL GROUP CO., LTD., priority 2021, published 2024).

Columns and labels:
[1] = test system: 5-HT reuptake in rat brain synaptosomes; assay: 3H-5-HT reuptake by rat brain synaptosomes; type: biochemical; settings: 3H-5HT 10 nM, read-out: 5-HT inhibition rate % IC50
Text: At present, it is believed that absolute or relative deficiencies of the central monoamine neurotransmitters 5-hydroxytryptamine (5-HT), norepinephrine (NA) and dopamine (DA) are closely related to depression and anxiety.
Synaptosomes were separated using methods in literature to prepare brain synaptosomes. SD rats were rapidly decapitated with a small animal decapitator. After decapitation, brains were taken out quickly and precooled in an ice-water mixture, and the pia mater and vascular tissue were removed. Brain tissue was taken out. 10 times volume (ml/g) of 10 mM Tris HCl buffer (containing 0.32 M sucrose, pH 7.4) was added, an ultrasonic cell pulverizer was used for homogenization (maintaining at a low temperature), and the brain tissue was homogenized and centrifuged for 10 min (4° C., 1,000 g). After balanced centrifugation (1500 g, 10 min) at 4° C., precipitate was discarded, then supernatant was taken, and centrifugation (20000 g) was performed again for 30 min. The supernatant was discarded and the precipitate, i.e. crude extract of synaptic corpuscles, was retained. […]
The percentage inhibition of isotope ligand binding by each compound was calculated according to the following equation: […]

ICR mice = assay: Elevated plus maze experiment in mice, single administration; type: in vivo; settings: for OE % / OT %: 30 min after single administration; for anxiolytic activity in elevated plus maze vs solvent control group: comparative study, single intragastric administration of 20 mg/kg
Procedure: 50 male ICR mice were randomly divided into 5 groups (a solvent control group, estazolam group, M2 high dosage group, M2 medium dosage group, M2 low dosage group), with 10 mice in each group. The compound M2 high, medium and low dosage groups were intragastrically administered at 20 mg/kg. 10 mg/kg and 5 mg/kg, respectively; the positive drug estazolam was intragastrically administered at 2.5 mg/kg; and the solvent control group was gavaged with an equal volume of solvent. Behavior test was performed in each group 30 min after single administration. The experiments were required to be conducted between 8:00 am and […], and all animals entered the test laboratory on the previous day.
The laboratory was dimly lit (with the lowest brightness that can distinguish the subtle activities of mice at a distance of 1.5 m) and the brightness was kept constant, with a room temperature of about 20° C., and kept quiet. Before the maze test, each mouse was placed in a 35 cm*10 cm*5 cm plastic box and left to explore freely for 5 min and then quickly placed at the central platform of an elevated plus maze, with its head facing one of the open arms, and the following indexes were recorded upon release. Each mouse was tested for 5 min. Observers observed and recorded animal activities at a distance of 1.5 m. At intervals, the maze was wiped with a wet cloth to remove feces, and then wiped with a dry cloth before a next mouse was tested.
• (1) The number of open arm entries (OE): the number of entries into any open arm, based on the fact that all four claws of the mouse entered the arm, and a complete exit of one claw from the arm indicated the completion of the entry activity; • (2) open arm time (OT): the time of entering an open arm, with the unit of seconds; • (3) the number of close arm entries (CE): the number of entries into any close arm, based on the fact that all four claws of the mouse entered the arm; • (4) close arm time (CT): the time of entering a close arm, with the unit of seconds; • (5) percentage of open arm time: OT %=OT/(OT+CT)*100%; and • (6) percentage of open arm entries: OE %=OE/(OE+CE)*100%.
70 male ICR mice were randomly divided into 7 groups (a solvent control group, estazolam group, compound M2 group, compound II-3 group, compound II-4 group, compound II-5 group, and compound II-10 group), with 10 mice in each group. The dosage of M2 and its four structurally similar compounds was determined as 20 mg/kg according to the experimental results of 3.1: the positive drug estazolam was administered intragastrically at 2.5 mg/kg; and the solvent control group was gavaged with an equal volume of solvent. Behavior test was performed in each group 30 min after single administration. The experiments were required to be conducted between 8:00 am and […], and all animals entered the test laboratory on the previous day.
The behavioral test method and behavioral observation indexes were the same as those in 3.1.
(§1) Data was expressed as mean±standard (mean±SD) difference, and statistics of data differences were made by one-way analysis of variance (ANOVA) or nonparametric test, and differences between groups were determined by P<0.05.

C57 BL/6 mice = assay: Mice tail suspension test after single oral administration; type: in vivo; settings: 30 min after single administration; for Immobility time within 6 min: n = 10, mean ± SD
Text: “Behavioral despair” models were developed by Porsolt et al. in 1977, including rats and mice forced swimming models and mice tail suspension models, which were acute stress models. Mice tail suspension experiment was a simple and easy-to-implement experimental method for evaluating antidepressant drugs introduced by Stern et al. in 1985, and its principle was the same as that of forced swimming “immobility” experiment.
40 mice were divided into 4 groups according to the Excel complete random grouping method, with 10 animals in each group. […] Therefore, in this experimental study, with 30 mg/kg as the low dosage of compound M2, 60 mg/kg was set as the high dosage of compound M2 to conduct research in comparison with 60 mg/kg compound I-5.
Each test group was administered intragastrically (i.g.) at 0.2 ml/10 g body weight.
Mice tail suspension test was carried out 30 min after a single oral administration, and the tail suspension lasted for 6 min. The immobility time of mice within 6 min was recorded.
as §1

[2] = comparative study (Table 13), 20 mg/kg i.g.
[3] = dosage exploration study (Table 12), 5 mg/kg i.g.
[4] = dosage exploration study (Table 12), 10 mg/kg i.g.
[5] = dosage exploration study (Table 12), 20 mg/kg i.g.

IC50 [1] [nM] | Structure (SMILES) | OE % (ICR mice; [2]) [%] | OT % (ICR mice; [2]) [%] | anxiolytic activity in elevated plus maze vs solvent control group (ICR mice) | Immobility time within 6 min (C57 BL/6 mice; 60 mg/kg i.g.) [s] | effect on immobility time of mice in tail suspension vs blank group (C57 BL/6 mice; 60 mg/kg) | OE % (ICR mice; [3]) [%] | OT % (ICR mice; [3]) [%] | OE % (ICR mice; [4]) [%] | OT % (ICR mice; [4]) [%] | OE % (ICR mice; [5]) [%] | OT % (ICR mice; [5]) [%] | effective dosage for single administration (anxiolytic) (ICR mice; mice, elevated plus maze) [mg/kg] | Immobility time within 6 min (C57 BL/6 mice; 30 mg/kg i.g.) [s] | effect on immobility time of mice in tail suspension vs blank group (C57 BL/6 mice; 30 mg/kg)
18.5 ± 2.47 | CC(C)CNC(=O)/C=C/c1cc2c(c(C(F)(F)F)c1)OCO2 [Compound I-5] | 47.01 ± 6.30 | 46.70 ± 9.98 | significant anxiolytic activity | 218.0 ± 35.3 | not significantly affected |  |  |  |  |  |  |  |  | 
98.9 ± 2.42 | NC(=O)/C=C/c1cc2c(c(C(F)(F)F)c1)OCO2 [Compound M2] | 57.94 ± 11.72 | 57.36 ± 8.77 | significant anxiolytic activity | 171.8 ± 21.7 | significantly shortened | 35.46 ± 10.13 | 38.52 ± 12.19 | 36.13 ± 14.12 | 35.92 ± 13.11 | 38.47 ± 7.13 | 44.60 ± 9.33 | 20 | 183.9 ± 43.5 | no statistically significant difference
